Legend:
[1] = system: beta amyloid 42; experiment: Aβ40/42 ELISA Assay (Aβ42); assay type: cell-based; conditions: CHO cells carrying the APP-REP-NL plasmid, 22 hours, sandwich ELISA; for EC50: Cricetulus griseus
Protocol: (§1) Compounds are diluted from DMSO stocks to 2 μM and below in a cell culture medium. Compounds are then applied to CHO cells carrying the APP-REP-NL plasmid [Sudhir et. al, J. Biolog. Chem. 267:25602-25608 (1992)] for a period of 22 hours. After the conditioning period, medium is collected, diluted in assay buffer containing protein, and samples, controls, and synthetic peptide standards are incubated on a prepared ELISA plate. Using a sandwich ELISA with antibodies specifically directed against the carboxyl terminus of beta amyloid 40 or 42 (analogous to the method reported by Haugabook et al., J. Neurosci. Methods 108:171-179 (2001) but using goat anti-mouse IgG1 (source: Southern Biotech) as the anchor, 6E10 as the capture antibody (Source: SENETEK), rabbit antiAβ40 and antiAβ42 (source: QCB) and APL-donkey anti-rabbit IgG (H+L, source: Southern Biotech) as the detection antibody), the effect of the compound treatment on the cellular production of extracellular beta amyloid is quantified. Cells treated with compound are subsequently incubated in cell culture medium containing MTS-formazan. After a short incubation period, MTS/medium containing plates are read in a spectrophotometer to determine the extent to which compound toxicity affected the cell's metabolism and ability to synthesize beta amyloid.
(§2) A. Test Samples: compound samples are supplied as 20 mM stock solutions in a 100% DMSO solution.
(§3) B. APP-REP-NL cells: Qualified cell lines are carried from week to week using 1:100 dilutions and are cultured in DMEM supplemented with 1× antibiotic/antimycotic, 200 ug/ml of G418 antibiotic, and 10% certified fetal calf serum. Cells are also banked in liquid nitrogen. Periodically, beta amyloid production is assessed, and cells are either kept in culture or replaced with progenitors at full expression.
(§4) C. Antibodies: From certified lots that have already been qualified in this assay. Antibodies are stored in small frozen aliquots at −80° C. that are thawed and used.
(§5) A compound is considered active if it has an EC50 for Aβ40 reduction of <100 μM and no toxicity at doses in the vicinity of the EC50.

[2] = system: amyloid precursor protein (APP) proteolysis; experiment: Repressor Release Assay (RRA); assay type: cell-based; set-up: key to RRA data (footnote symbols): **: Inactive due to toxicity; however, this compound, at 3-4 μM, reduces Aβ levels by 50% in CHO cells transfected with human APP695 as measured by ELISA without exhibiting toxicity.; ***: Inactive; however, this compound, at 1-4 μM, reduces Aβ levels by 50% in CHO cells transfected with human APP695 as measured by ELISA without exhibiting toxicity; conditions: for fold induction at 20 µg/mL: Cricetulus griseus, CHO-K1, all compounds tested at 20 μg/mL, luciferase activity over diluent control, read-out: RRA data (Fold increase of APPI)
Protocol: The beta amyloid inhibitory activity of many of the compounds of the present invention has been determined using the Repressor Release Assay (RRA). See, Table 3 below. A compound is considered active in RRA if it leads to at least a 1.5 fold increase in luciferase activity at 20 μg/mL and is non-toxic.
The compound is considered active in RRA if it leads to at least a 1.5 fold increase in APPI as measured by an increase in luciferase activity at 20 μg/mL and is non-toxic. Shuey, D. J., Sheiffele, P., Jones, D., Cockett, M. I., and Quinet, E. M. (1999) Repressor release: a useful tool for monitoring amyloid precursor protein (APP) proteolysis in mammalian cells. Society for Neuroscience Abstracts, Vol. 25, 29th Annual Meeting of Society for Neuroscience, Miami Beach, Fla., Oct. 23-28, 1999.
CHO—K1 cells are cultured in whole DMEM media (DMEM—High Glucose with 10% fetal bovine serum, 1% Non-essential Amino Acids, and 1% Penicillin-Streptomycin) at 37° C. with 5% CO2. Two million cells are plated into 10-cm dishes 24 hrs prior to transfection.
Transient transfections are completed as recommended by Gibco BRL using their Lipofectamine Plus system. First, 6 μg of pRSVO-luc and 6 μg of APP-lacI construct DNA are added to 460 μL Opti-Mem transfection media and incubated with 30 μL Plus reagent for 15 minutes. Then, a lipid mixture of 40 μL Lipofectamine reagent and 460 μL Opti-Mem transfection media is incubated with the DNA-Plus reagent mixture for 15 minutes. During the DNA-lipid incubation, the CHO—K1 cells are washed once and covered in 5.0 mL DMEM media without Penicillin-Streptomycin. The DNA-lipid preparation is then layered onto these cells and incubated at 37° C. overnight.
One and one half million transfected cells per well (100 μL total volume) are plated into sterile, opaque Packard 96-well Cultur-Plates in clear DMEM whole media (DMEM—without phenol red) and incubated at 37° C. with 5% CO2 for 3-5 hours.
Compounds are diluted using two different protocols; one protocol is used for compounds supplied neat (weighed powder in vial) and the other protocol is used for compounds supplied in solution (20 mM in DMSO in 96-well plates). For both protocols, 25 mM Hepes and 25 mM Hepes/1% DMSO are prepared fresh to be used as diluent. The Hepes/DMSO is used as the diluent control on all experimental plates.
The following Table 1 depicts the steps for compound dilution (the last step is the addition of compound to cells/media in tissue culture plate):
Because some compounds arrive in 96-well format at 20 mM, the following Table 2 represents the protocol for their dilution (an average molecular weight of these compounds was used to calculate these dilutions and as above, the last step is the addition of compound to cells/media in tissue culture plate):
Once compounds are diluted, they are applied in duplicate on cells in tissue culture plates (prepared above). Cells are incubated with compound at 37° C. with 5% CO2 for an additional 36-48 hours.
Luciferase assays (LucLite reagent, Packard) are performed and are read on a Packard TopCount instrument. Media is removed from each 96-well plate and replaced with 100 μL PBS per well (with Mg^2+ and Ca^2+). An equal volume (100 μL) of the LucLite lysis/substrate buffer is added to each well and the plates are sealed and mixed in the dark on a rotary shaker for 15-30 minutes at room temperature. Luciferase readings are then taken on the TopCount instrument. Measurements are expressed as relative light units (RLU) and are calculated and analyzed in MS Excel as follows:
Fold Increase: amount of luciferase activity (measured in relative light units) over diluent control.
SEM: standard error of the mean for fold increase.
Activity: A compound is considered active if it results in at least a 1.5 fold increase in luciferase activity at 20 μg/mL.
Toxicity: determined by loss of signal (<0.75 fold increase).

[3] = system: beta amyloid 40; experiment: Aβ40/42 ELISA Assay (Aβ40); assay type: cell-based; conditions: Cricetulus griseus; CHO cells carrying the APP-REP-NL plasmid, 22 hours, sandwich ELISA
Protocol: as §1, §2, §3, §4, §5

[4] = system: beta amyloid protein; conditions: in vivo after oral administration; cited from earlier work

Row | Structure (SMILES) | melting point | EC50 [1] | fold induction at 20 µg/mL ([2]; transfected CHO-K1 cells) | EC50 [3] | beta amyloid protein levels in mice brains [4] | fold increase in luciferase activity ([2]; at 20 μg/mL) | RRA data (footnote symbols) ([2]; tested at 20 μg/mL, transfected CHO-K1 cells) | Effect on Aβ42 production [1]
1 | CCC(CC)C(NS(=O)(=O)c1ccc(Cl)s1)c1ncnn1Cc1ccc(C)cc1 (stereo not drawn) [Example 27, 5-Chloro-N-{2-ethyl-1-[1-(4-methylbenzyl)-1H-1,2,4-triazol-5-yl]butyl}thiophene-2-sulfonamide] | 103 to 104 °C | 6.2 µM | 13 | 2.7 µM |  |  |  | 
2 | CCC(CC)C(NS(=O)(=O)c1ccc(Cl)s1)c1ncnn1Cc1ccc(OC)cc1 (stereo not drawn) [Example 21, 5-Chloro-N-{2-ethyl-1-[1-(4-methoxybenzyl)-1H-1,2,4-triazol-5-yl]butyl}thiophene-2-sulfonamide] | 136 to 137 °C | 3.1 µM | 10.8 | 1.4 µM |  |  |  | 
3 | CC(C)C(NS(=O)(=O)c1ccc(Cl)s1)c1ncnn1Cc1ccccc1 (stereo not drawn) [Example 23, N-[1-(1-Benzyl-1H-1,2,4-triazol-5-yl)-2-methylpropyl]-5-chlorothiophene-2-sulfonamide] | 138 to 139 °C | 13.2 µM | 1.8 | 5.2 µM |  |  |  | 
4 | C[C@H](NC(=O)Cc1cc(F)cc(F)c1)C(=O)N[C@H](C(=O)OC(C)(C)C)c1ccccc1 [DAPT, reference compound] |  |  |  |  | reduce beta amyloid protein levels | 18.5-28.1 fold increase |  | 
5 | CCC(CC)C(NS(=O)(=O)c1ccc(Cl)s1)c1ccnn1S(=O)(=O)c1ccc(C)cc1 (stereo not drawn) [Example 9, 5-Chloro-N-(2-ethyl-1-{1-[(4-methylphenyl)sulfonyl]-1H-pyrazol-5-yl}butyl)thiophene-2-sulfonamide] | 146 to 148 °C | 4.5 µM |  | 3 µM |  |  | *** | 
6 | Cc1ccc(Cn2ncnc2C(C)NS(=O)(=O)c2ccc(Cl)s2)cc1 (stereo not drawn) [Example 26, 5-Chloro-N-{1-[1-(4-methylbenzyl)-1H-1,2,4-triazol-5-yl]ethyl}thiophene-2-sulfonamide] | 116 to 117 °C | 15.5 µM | 5.6 | 9.6 µM |  |  |  | 
7 | CC(C)C(NS(=O)(=O)c1ccc(Cl)s1)c1cccn1Cc1ccccc1 (stereo not drawn) [Example 31, N-[1-(1-Benzyl-1H-pyrrol-2-yl)-2-methylpropyl]-5-chlorothiophene-2-sulfonamide] | 102 to 103 °C |  | 5.3 | 26.7 µM |  |  |  | increase
8 | CCC(CC)C(NS(=O)(=O)c1ccc(Cl)s1)c1ccnn1Cc1ccc(O)cc1 (stereo not drawn) [Example 8, 5-Chloro-N-{2-ethyl-1-[1-(4-hydroxybenzyl)-1H-pyrazol-5-yl]butyl}thiophene-2-sulfonamide] | 90 to 92 °C |  | 4.5 |  |  |  |  | 
9 | Cc1ccc(Cn2ncnc2C(NS(=O)(=O)c2ccc(Cl)s2)C(C)C)cc1 (stereo not drawn) [Example 24, 5-Chloro-N-{2-methyl-1-[1-(4-methylbenzyl)-1H-1,2,4-triazol-5-yl]propyl}thiophene-2-sulfonamide] | 124 to 125 °C | 11 µM | 1.8 | 6 µM |  |  |  | 
10 | CCC(CC)C(c1ccnn1-c1ccccc1)N(C)S(=O)(=O)c1ccc(Cl)c(Cl)c1 (stereo not drawn) [Example 47, 3,4-Dichloro-N-[2-ethyl-1-(1-phenyl-1H-pyrazol-5-yl)butyl]-N-methylbenzenesulfonamide] | 102.1 to 104.1 °C |  |  | 61.2 µM |  |  |  | increase
11 | CC(NS(=O)(=O)c1ccc(Cl)s1)c1ncnn1Cc1ccccc1 (stereo not drawn) [Example 25, N-[1-(1-Benzyl-1H-1,2,4-triazol-5-yl)ethyl]-5-chlorothiophene-2-sulfonamide] | 123 to 124 °C | 90 µM | 6.6 | 42.5 µM |  |  |  | 
12 | CCC(CC)C(NS(=O)(=O)c1cc(Cl)c(Cl)s1)c1ccnn1-c1ccccc1 (stereo not drawn) [Example 38, 4,5-Dichloro-N-[2-ethyl-1-(1-phenyl-1H-pyrazol-5-yl)butyl]thiophene-2-sulfonamide] | 116 to 119.6 °C |  |  | 13.3 µM |  |  |  | increase
13 | CCC(CC)C(c1ccnn1-c1ccccc1)N(C)S(=O)(=O)c1cc(Cl)c(Cl)s1 (stereo not drawn) [Example 45, 4,5-Dichloro-N-[2-ethyl-1-(1-phenyl-1H-pyrazol-5-yl)butyl]-N-methylthiophene-2-sulfonamide] | 99 to 100.4 °C |  |  | 33.6 µM |  |  |  | increase

Source: patent US7674813B2, “Heterocyclic sulfonamide inhibitors of beta amyloid production containing an azole” (Wyeth, priority 2004, dated 2010)
